Experimental data taken from article PMC4444023 (PLoS ONE, 2015).
Where “and” joins values, the source holds several entries; their conditions need not be identical. Equal values may be shown once.

Molecular target: T1, human nSMase2 (Homo sapiens, UniProt Q9NY59)
T1 sequence (Q9NY59 1-655): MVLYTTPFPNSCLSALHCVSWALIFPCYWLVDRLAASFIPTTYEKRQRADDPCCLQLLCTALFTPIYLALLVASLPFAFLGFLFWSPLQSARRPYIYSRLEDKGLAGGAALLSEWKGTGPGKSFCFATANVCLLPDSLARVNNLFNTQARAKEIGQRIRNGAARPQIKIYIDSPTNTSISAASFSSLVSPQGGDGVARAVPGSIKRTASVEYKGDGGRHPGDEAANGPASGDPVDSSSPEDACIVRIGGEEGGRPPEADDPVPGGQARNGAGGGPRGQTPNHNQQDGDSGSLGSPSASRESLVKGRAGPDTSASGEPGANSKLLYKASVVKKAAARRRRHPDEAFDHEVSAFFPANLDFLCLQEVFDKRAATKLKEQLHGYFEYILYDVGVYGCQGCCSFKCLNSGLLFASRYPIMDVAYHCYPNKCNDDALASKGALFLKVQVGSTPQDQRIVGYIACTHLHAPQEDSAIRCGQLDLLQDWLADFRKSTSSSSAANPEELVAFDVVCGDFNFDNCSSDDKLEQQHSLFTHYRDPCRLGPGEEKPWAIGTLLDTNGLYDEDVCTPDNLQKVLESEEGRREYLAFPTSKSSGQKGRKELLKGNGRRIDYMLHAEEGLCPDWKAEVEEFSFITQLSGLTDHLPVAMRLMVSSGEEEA
Assay: 14C-SM confirmatory direct activity assay
Type: biochemical
Set-up: Full length human nSMase2 cDNA with a C-terminal Flag tag; host or cells: HEK293, stably transfected; crude cell lysate used as enzyme
Description: This assay was dependent on the direct hydrolysis of ^14C-labeled SM (^14C N-methyl groups in the phosphorylcholine) by human nSMase2. Optimization of assay conditions was accomplished according to the methods of Barbone et al.. Briefly, bovine [N-methyl-^14C]-sphingomyelin (specific activity […], Perkin Elmer) and phosphatidylinositol (Avanti Polar Lipids) were evaporated to dryness under a stream of nitrogen and resuspended at an equimolar concentration of 0.1 mM in water with 0.5% Triton X-100 (Sigma). The solution was vortexed for 30 min and then sonicated for 30 min. Assay conditions were as follows: 50 μl total volume per reaction, consisting of 20 μM SM, reaction buffer (100 mM Tris-HCl pH 7.5, 80 mM MgCl2, 0.1% Triton X-100); 10 μl cell lysate containing recombinant human nSMase2 (0.5–1 μg protein/assay) and 5 μl of compound in reaction buffer containing 10% DMSO. After 1 h incubation at 37°C the reaction was terminated by the addition of 30 μl of water and 175 μl of chloroform/methanol (2:1, v:v), followed by vigorous vortexing. Tubes were centrifuged for 5 min at 10,000 xg at room temperature to separate the organic bottom phase containing labeled SM and the aqueous upper phase containing ^14C-labeled-phosphorylcholine. An aliquot (50 μl) of the upper phase was transferred to a vial with 10 ml of scintillant and counted for 2 min on a Beckman LS-6000IC scintillation counter. Enzyme activity was directly proportional to the disintegrations per min (dpm) resulting from the generation of ^14C-phosphorylcholine.

O=c1[nH]c(=S)[nH]c(-c2ccccc2)c1Cc1c(O)ccc2ccccc12 [Cambinol, cambinol]
%Inhibition (Log [compound] -3.0): 92.0% and 91.0% | %Inhibition (Log [compound] -3.47756): 99.0% and 86.0% | %Inhibition (Log [compound] -4.0): 83.0% and 80.0% | %Inhibition (Log [compound] -5.0): 56.0% and 57.0% | %Inhibition (Log [compound] -5.47756): 46.0% and 47.0% | %Inhibition (Log [compound] -6.0): 13.0% and 15.0% | %Inhibition (Log [compound] -7.0): 0.0% and 10.0% | %Inhibition (Log [compound] -7.47756): 8.0% and 10.0% | %Inhibition (Log [compound] -8.0): 8.0% and 11.0% | %Inhibition (Log [compound] -8.47756): 14.0% and 7.0% | %Inhibition (Log [compound] -9.0): 6.0% and 4.0% | %Inhibition (Log [compound] -9.47756): 12.0% and 18.0* % | inhibition at 10 µM (at 10 μM): > 80%
